pEC50: −log10 of the molar value.
Columns and labels:
[1] = system: Hs578T; assay: Annexin V/PI binding (cell death/apoptosis), flow cytometry; type: cell-based; conditions: for effect of addition of cholesterol on induced death: Hs578T cells, 70 μg/ml BN107, 0.2 mg/ml BZL101 or 500 nM taxol with 500 μM cholesterol, 18 hours
Protocol: (§1) ERα plays a role in BN107-induced apoptosis. In Table 1-1 below are the results of experiments in which cells were treated with BN107 and harvested after 24 hours for analysis of Annexin V/PI binding. Three independent experiments were conducted for each data point.
(§2) BN107 induced apoptosis selectively in ER− breast cancer cells and introducing expression of ERα protected these cells against BN107 Prior studies have shown that ethanolic extract of G. sinensis is cytotoxic to a number tumor cell lines by inducing cytotoxicity. A wider panel of solid-tumor cell lines, derived from various origins, is analyzed herein. Sub-confluent cultures were treated with 70 μg/ml of BN107 for 18 hours and cell death were analyzed by annexinV/PI binding followed by flow cytometry. […] It is evident that BN107 induced cell death in tumor lines derived from various origins to different extent. […] These experiments sought to determine if there was correlative relationship between genotypic characteristics of the cells versus sensitivity. As shown in Table 2-1, it appeared that cells lacking ER expression were highly sensitive to BN107; while cells containing functional ER were relatively insensitive to BN107 at this dose. The death induced by BN107 in ER− lines was apoptotic in nature that was primarily mediated by the mitochondrial pathway, as evident from Annexin V binding, dissipation of mitochondrial potential, cytosolic release of cytochrome C, activation of caspases, and DNA fragmentation.
(§3) All the cell lines used were purchased from ATCC. Cells were treated with 70 μg/ml of BN107 (calculated based on freeze-dry weight). The dose is determined based on the EC50 of each batch in killing 50% of Hs578T or MDA-MB-231 cells 18 hours after treatment.
(§4) Cell survival was measured using FACS analysis of AnnexinV-alexa 488/PI bound cells following the manufacturer's instruction (Invitrogen). Mitochondrial transmembrane potential (MTP) was determined using JC-1 dye (Invitrogen) in live cells and analyzed using flow cytomery. Caspase 3 and 9 activities were measured using specific caspase peptide inhibitors (Calbiochem) conjugated to FITC followed by flow cytometry analysis. Cytosolic cytochrome C release were determined by separating the cytosol from mitochondria (Biovision) and cytochrome C released in cytosol was shown using immunoblotting.

[2] = system: MDA-MB-231; assay: as above; type: cell-based; conditions: Homo sapiens, MDA-MB-231, read-out: EC50 for MDA-MB-231
Protocol: as §1, §2, §3, §4

[3] = system: phospho-mTOR, total mTOR, RAPTOR and RICTOR in LR fractions of Hs578T; assay: Western blot of lipid raft fractions: mTOR complex components; type: cell-based, human; conditions: Hs578T cells; 70 μg/ml BN107 or 110 μM oleanolic acid, 4 hours
Protocol: (§5) As Akt/mTOR, the main survival signaling pathway, has been implicated to take place on LRs, it was hypothesized that BN107 and similarly OA disrupted the signaling of these complexes on LRs. The fractions collected from sucrose-density—centrifugation of BN107 or OA treated Hs578T or MCF7 lysates were dialyzed and concentrated. Same amounts of protein from LR (fractions 3-5), non-LR plasma membrane (f6), and cytosolic (f8) fractions were analyzed by Western blotting. The levels of RAPTOR, Akt, 4E-BP, p70S6 kinase were first observed in these collected fractions; and it was confirmed that they were all enriched in the LR fractions (data not shown). The levels of phospho-mTOR, total mTOR; as well as the mTORC1 and mTORC2 complex partner RAPTOR and RICTOR, respectively, were then measured in BN107 or OA treated Hs578T cells. […]
(§6) A modified procedure for density gradient centrifugation using Nycodenz from Sigma-Aldrich (St. Louis, Mo.) was used to fractionate Triton X-100-soluble and Triton X-100-insoluble membrane and cytoskeletal subdomains and complexes. […] Total of 10 fractions and control input lysate were analyzed for the distribution of proteins by Western blot. […] The fractions were dialyzed against PBS to remove the gradient sugars and concentrated using Amicon Ultra 4 centrifugal filter device (Millipore) before protein quantitation (BCA reagent, Thermo Fisher). […]

[4] = system: mTORC1; assay: mTORC1 activity by phosphorylation of 4E-BP and p70S6 kinase (Western); type: cell-based, human; conditions: lipid raft region of Hs578T cells; 70 μg/ml BN107 or 110 μM oleanolic acid, 4 hr
Protocol: as §5, §6

[5] = system: mTORC2 / Akt; assay: Ser473-phosphorylated Akt in LR fractions as read-out for mTORC2 activity (Western); type: cell-based, human; conditions: Hs578T cells; 70 μg/ml BN107 or 110 μM oleanolic acid, 4 hr
Protocol: (§7) In addition, as the same pool of mTOR/FRAP1 polypeptide is shared between the mTORC1 and mTORC2 complex and the mTORC2 complex partner RICTOR was decreased in the lipid rafts of BN107 or OA-treated Hs578T cells, it was hypothesized that mTORC2 activity would be inhibited as well. Given the recent discovery that mTORC2 is the main kinase phosphorylating Akt at Ser473, and Akt signaling has been implicated to take place on LRs, the level of Ser473 phosphorylated Akt was analyzed in LR fractions as a read-out for mTORC2 activity. […] Conversely, addition of exogenous cholesterol restored these signaling events disrupted by BN107 or OA (FIG. 8C). […] The levels of transferrin receptor (TR) marking the non-LR plasma membrane region and GAPDH marking the cytosolic fractions were not affected in both cell lines by either BN107 or OA treatment.
as §6

[6] = system: mTORC1/mTORC2/Akt signaling in MCF7 cells; assay: Western blot of lipid raft fractions, resistant cells; type: cell-based, human
Protocol: as §7, §6

[7] = system: mTOR/FRAP1, phospho-mTOR, RAPTOR, RICTOR, Akt in Hs578T cells; assay: Western analysis of total cellular lysate; type: cell-based, human; conditions: ER− Hs578T cells (data not shown)
Source text: To ascertain that these signaling changes occurred at LRs indeed translated into the whole-cell level. […] Consistent with the data shown within the lipid raft fractions, levels of total mTOR/FRAP1, phospho-mTOR, RAPTOR, and RICTOR were all decreased within one hour of BN107 treatment, resulting in minimal mTORC1 and mTORC2 activities to phosphorylate 4E-BP and p70S6 kinase, and Ser473-Akt, respectively. The decrease in total protein levels of mTOR/FRAP1, RAPTOR and RICTOR occurred post-transcriptionally as the levels of their corresponding mRNAs were not modulated by BN107 or OA treatment in the sensitive ER− Hs578T cells (data not shown). […] These effects were presumably due to their cholesterol binding/stripping effect on LRs, as addition of exogenous cholesterol seemed to reverse these events (FIG. 8C).
Cell extracts, obtained by scraping cells in PBS in the presence of protein phosphatase and protease inhibitors and lysing with ice-cold RIPA buffer, were loaded on the SDS-PAGE at 25-30 μg per lane. Same amounts of proteins […] were precipitated from lipid raft fractions and loaded onto 3-7% TA gel or 4-12% Bis-Tris gels. Separated proteins were transferred onto nitrocellulose membrane (iBlot, Invitrogen) and used for probing with specific antibodies following manufacturer's instruction. Blots were reused several times after mild stripping (Restore, ThermoFisher) when necessary. […]

[8] = animals; cited from earlier work

| SMILES | pEC50 ([1]; Homo sapiens, Hs-578T, read-out: EC50 for Hs578T) | effect of addition of cholesterol on induced death [1] | pEC50 [2] | levels of phospho-mTOR, total mTOR, RAPTOR and RICTOR in LR fractions [3] | mTORC1 activity (phosphorylation of 4E-BP and p70S6 kinase) [4] | level of Ser473-phosphorylated Akt in LR fractions (mTORC2 read-out) [5] | total level of Akt on LRs [5] | changes in mTORC1/mTORC2/Akt signaling on LRs [6] | mRNA levels of mTOR/FRAP1, RAPTOR and RICTOR [7] | toxicity at anti-tumor doses [8] |
| --- | --- | --- | --- | --- | --- | --- | --- | --- | --- | --- |
| CC1(C)CC[C@]2(C(=O)O)CC[C@]3(C)C(=CC[C@@H]4[C@@]5(C)CC[C@H](O)C(C)(C)[C@@H]5CC[C@]43C)[C@@H]2C1 [OA, oleanolic acid] | 3.96 | protected cells specifically and completely | 3.90 | significantly decreased | greatly inhibited | decreased | no effect | None of these changes were observed | not modulated | minimal toxicity |
| CC(=O)O[C@H]1C(=O)[C@@]2(C)[C@H]([C@H](OC(=O)c3ccccc3)[C@]3(O)C[C@H](OC(=O)[C@H](O)[C@@H](NC(=O)c4ccccc4)c4ccccc4)C(C)=C1C3(C)C)[C@]1(OC(C)=O)CO[C@@H]1C[C@@H]2O [taxol, paclitaxel, reference compound] |  | no effect |  |  |  |  |  |  |  |  |

— patent publication US20120045532A1, “Anticancer Methods Employing Extracts of Gleditsia sinensis Lam” (priority 2008, published 2012)
